Active and inactive are the calls of the source. The calls are words filed in the database; no cut-off is given here.
Tests used:
[1] = test system: Mus musculus; assay: In vivo inhibition of polymerase acid protein (PA) mRNA expression in H1N1 influenza virus infected in BALB/c mouse at 20 to 40 mg/kg single oral dose by qRT-PCR analysis; assay type: functional, organism-based; conditions: dose 20-40 mg/kg
[2] = test system: Mus musculus; assay: In vivo inhibition of […] (PA) mRNA expression in H1N1 influenza virus infected in BALB/c mouse at 20 to 40 mg/kg single oral dose by qRT-PCR analysis; assay type: functional, organism-based; conditions: dose 20-40 mg/kg
[3] = Metabolic stability in mouse liver microsomes assessed as half life measured up to 60 mins by LC-MS/MS analysis; assay type: ADME, Microsome
[4] = Cytotoxicity against dog MDCK cells assessed as cell viability measured after 48 hrs by CCK-8 assay; assay type: toxicity, cell-based, Canis lupus familiaris
[5] = Cmax in CD-1 mouse at 15 mg/kg, po measured up to 24 hrs by LC-MS/MS analysis; assay type: ADME, organism-based; conditions: in vivo
[6] = Cmax in CD-1 mouse at 1 mg/kg, iv measured up to 24 hrs by LC-MS/MS analysis; assay type: ADME, organism-based; conditions: in vivo
[7] = Half life in CD-1 mouse at 1 mg/kg, iv measured up to 24 hrs by LC-MS/MS analysis; assay type: ADME, organism-based; conditions: in vivo
[8] = Selectivity index, ratio of CC50 for dog MDCK cells to EC50 for antiviral activity against influenza strain A/WSN/1933 (H1N1) infected in MDCK cells; assay type: toxicity, cell-based; conditions: read-out: Selectivity Index
[9] = test system: Influenza A virus; assay: Antiviral activity against influenza strain A/WSN/1933 (H1N1) infected in MDCK cells assessed as reduction of virus-induced cytopathic effect measured after 2 days incubation; assay type: functional, organism-based; conditions: 48 h
[10] = test system: Mus musculus; assay: In vivo inhibition of polymerase acid protein (PA) protein expression in H1N1 influenza virus infected in BALB/c mouse at 20 to 40 mg/kg single oral dose by Western blot analysis; assay type: functional, organism-based; conditions: dose 20-40 mg/kg
[11] = MRT (0 to infinity) in CD-1 mouse at 15 mg/kg, po measured up to 24 hrs by LC-MS/MS analysis; assay type: ADME, organism-based; conditions: in vivo
[12] = test system: Mus musculus; assay: In vivo inhibition of […] (PA) protein expression in H1N1 influenza virus infected in BALB/c mouse at 20 to 40 mg/kg single oral dose by Western blot analysis; assay type: functional, organism-based; conditions: dose 20-40 mg/kg
[13] = Cytotoxicity against human HepG2 cells assessed as cell viability measured after 48 hrs by CCK-8 assay; assay type: toxicity, cell-based
[14] = Tmax in CD-1 mouse at 1 mg/kg, iv measured up to 24 hrs by LC-MS/MS analysis; assay type: ADME, organism-based; conditions: in vivo
[15] = Half life in CD-1 mouse at 15 mg/kg, po measured up to 24 hrs by LC-MS/MS analysis; assay type: ADME, organism-based; conditions: in vivo
[16] = test system: Influenza A virus; assay: Antiviral activity against influenza virus clinical strain H3N2 (A/Guangdong/2/2023) infected in MDCK cells assessed as reduction of virus-induced cytopathic effect measured after 2 days incubation; assay type: functional, organism-based; conditions: 48 h
[17] = Metabolic stability in human liver microsomes assessed as intrinsic clearance measured up to 60 mins by LC-MS/MS analysis; assay type: ADME, Microsome; conditions: read-out: CLH
[18] = Selectivity index, ratio of CC50 for dog MDCK cells to EC50 for antiviral activity against influenza strain A/Aichi/ 2/1968 (H3N2) infected in MDCK cells; assay type: toxicity, cell-based; conditions: read-out: Selectivity Index
[19] = test system: Influenza A virus; assay: Antiviral activity against influenza strain A/Aichi/ 2/1968 (H3N2) infected in MDCK cells assessed as reduction of virus-induced cytopathic effect measured after 2 days incubation; assay type: functional, organism-based; conditions: 48 h
[20] = Cytotoxicity against human 786O cells assessed as cell viability measured after 48 hrs by CCK-8 assay; assay type: toxicity, cell-based, 786-0
[21] = Oral bioavailability in CD-1 mouse at 15 mg/kg measured up to 24 hrs by LC-MS/MS analysis; assay type: ADME, organism-based; conditions: in vivo
[22] = AUC (0 to infinity) in CD-1 mouse at 15 mg/kg, po measured up to 24 hrs by LC-MS/MS analysis; assay type: ADME, organism-based; conditions: in vivo
[23] = Cytotoxicity against human Hep3B cells assessed as cell viability measured after 48 hrs by CCK-8 assay; assay type: toxicity, cell-based, Hep 3B2
[24] = Cytotoxicity against human Huh-7 cells assessed as cell viability measured after 48 hrs by CCK-8 assay; assay type: toxicity, cell-based
[25] = AUC (0 to infinity) in CD-1 mouse at 1 mg/kg, iv measured up to 24 hrs by LC-MS/MS analysis; assay type: ADME, organism-based; conditions: in vivo
[26] = Metabolic stability in human liver microsomes assessed as half life measured up to 60 mins by LC-MS/MS analysis; assay type: ADME, Microsome
[27] = MRT (0 to infinity) in CD-1 mouse at 1 mg/kg, iv measured up to 24 hrs by LC-MS/MS analysis; assay type: ADME, organism-based; conditions: in vivo
[28] = test system: HEK293T; assay: Inhibition of H1N1 influenza virus RdRp extracted for human 293T cells assessed as luminescence signal after 24 hrs incubation by Firefly/Renilla luciferase assay; assay type: cell-based; conditions: Influenza A virus, dose 0.625-12.5 nM
[29] = Metabolic stability in mouse liver microsomes assessed as intrinsic clearance measured up to 60 mins by LC-MS/MS analysis; assay type: ADME, Microsome; conditions: read-out: CLH
[30] = Tmax in CD-1 mouse at 15 mg/kg, po measured up to 24 hrs by LC-MS/MS analysis; assay type: ADME, organism-based; conditions: in vivo
[31] = test system: Influenza A virus; assay: In vivo antiviral activity against influenza strain A/WSN/1933 (H1N1) infected in BALB/c mouse assessed as increase in mouse survival at 10 to 40 mg/kg, IG treated 12 hrs after infection measured on 9 dpi; assay type: functional, organism-based; conditions: dose 10-40 mg/kg, time 9.0 day
[32] = test system: Influenza A virus; assay: In vivo antiviral activity against influenza strain A/WSN/1933 (H1N1) infected in BALB/c mouse assessed as improvement in alveolar collapse in lungs at 20 to 40 mg/kg, IG treated 12 hrs after infection measured on 9 dpi by histopathological analysis; assay type: functional, organism-based; conditions: dose 20-40 mg/kg, time 9.0 day
[33] = test system: Influenza A virus; assay: In vivo antiviral activity against influenza strain A/WSN/1933 (H1N1) infected in BALB/c mouse assessed as weight regaining at 10 to 40 mg/kg, IG treated 12 hrs after infection measured on 9 dpi; assay type: functional, organism-based; conditions: dose 10-40 mg/kg, time 9.0 day
[34] = test system: Influenza A virus; assay: In vivo antiviral activity against influenza strain A/WSN/1933 (H1N1) infected in BALB/c mouse assessed as improvement in septal thickening in lungs at 20 to 40 mg/kg, IG treated 12 hrs after infection measured on 9 dpi by histopathological analysis; assay type: functional, organism-based; conditions: dose 20-40 mg/kg, time 9.0 day
[35] = Acute toxicity in CD-1 mouse assessed as abnormal lesions in intestine at 2000 mg/kg, po single dose measured for 2 weeks by macroscopic examination; assay type: organism-based; conditions: in vivo, 336 h
[36] = test system: Influenza A virus; assay: In vivo antiviral activity against influenza strain A/WSN/1933 (H1N1) infected in BALB/c mouse assessed as reduction in overall inflammation in lungs at 10 to 20 mg/kg, IG treated 12 hrs after infection measured on 9 dpi by histopathological analysis; assay type: functional, organism-based; conditions: dose 10-20 mg/kg, time 9.0 day
[37] = test system: Influenza A virus; assay: In vivo antiviral activity against influenza strain A/WSN/1933 (H1N1) infected in BALB/c mouse assessed as inhibition of virus-induced inflammatory cytokine TNF-alpha level at 10 to 40 mg/kg, IG treated 12 hrs after infection measured on 9 dpi; assay type: functional, organism-based; conditions: dose 10-40 mg/kg, time 9.0 day
[38] = test system: Influenza A virus; assay: In vivo antiviral activity against influenza strain A/WSN/1933 (H1N1) infected in BALB/c mouse assessed as improvement in septal thickening in lungs at 10 to 20 mg/kg, IG treated 12 hrs after infection measured on 9 dpi by histopathological analysis; assay type: functional, organism-based; conditions: dose 10-20 mg/kg, time 9.0 day
[39] = Acute toxicity in CD-1 mouse assessed as mouse survival at 2000 mg/kg, po single dose measured for 2 weeks; assay type: organism-based; conditions: in vivo, 336 h
[40] = Acute toxicity in CD-1 mouse assessed as abnormal lesions in spleen at 2000 mg/kg, po single dose measured for 2 weeks by macroscopic examination; assay type: organism-based; conditions: in vivo, 336 h
[41] = test system: Influenza A virus; assay: In vivo antiviral activity against influenza strain A/WSN/1933 (H1N1) infected in BALB/c mouse assessed as inhibition of virus-induced inflammatory cytokine IL-1beta level at 10 to 40 mg/kg, IG treated 12 hrs after infection measured on 9 dpi; assay type: functional, organism-based; conditions: dose 10-40 mg/kg, time 9.0 day
[42] = test system: Influenza A virus; assay: In vivo antiviral activity against influenza strain A/WSN/1933 (H1N1) infected in BALB/c mouse assessed as inhibition of virus-induced inflammatory cytokine IFNgamma level at 10 to 40 mg/kg, IG treated 12 hrs after infection measured on 9 dpi; assay type: functional, organism-based; conditions: dose 10-40 mg/kg, time 9.0 day
[43] = Acute toxicity in CD-1 mouse assessed as abnormal lesions in kidney at 2000 mg/kg, po single dose measured for 2 weeks by macroscopic examination; assay type: organism-based; conditions: in vivo, 336 h
[44] = Acute toxicity in CD-1 mouse assessed as abnormal lesions in lungs at 2000 mg/kg, po single dose measured for 2 weeks by macroscopic examination; assay type: organism-based; conditions: in vivo, 336 h
[45] = test system: Influenza A virus; assay: In vivo antiviral activity against influenza strain A/WSN/1933 (H1N1) infected in BALB/c mouse assessed as improvement in alveolar collapse in lungs at 10 to 20 mg/kg, IG treated 12 hrs after infection measured on 9 dpi by histopathological analysis; assay type: functional, organism-based; conditions: dose 10-20 mg/kg, time 9.0 day
[46] = test system: Influenza A virus; assay: In vivo antiviral activity against influenza strain A/WSN/1933 (H1N1) infected in BALB/c mouse assessed as inhibition of virus-induced inflammatory cytokine IL-6 level at 10 to 40 mg/kg, IG treated 12 hrs after infection measured on 9 dpi; assay type: functional, organism-based; conditions: dose 10-40 mg/kg, time 9.0 day
[47] = Acute toxicity in CD-1 mouse assessed as clinical signs of toxicity at 2000 mg/kg, po single dose measured for 2 weeks; assay type: organism-based; conditions: in vivo, 336 h

O=C1c2c(O)c(=O)ccn2N([C@@H](c2ccc(F)c(F)c2)c2cccs2)[C@@H]2COCCN12
inhibition [1]: Active
inhibition [2]: Active
half-life [3]: 38.5 h
CC50 at 48 h [4]: 34.2 µM
Cmax [5]: 4070 ng/mL
Cmax [6]: 940 ng/mL
half-life [7]: 3.43 h
selectivity ratio [8]: 18200
EC50 [9]: 0.00188 µM
inhibition [10]: Active
MRT inf [11]: 2.77 h
inhibition [12]: Active
CC50 at 48 h [13]: > 50 µM
Tmax [14]: 4.8 min
half-life [15]: 4.3 h
EC50 [16]: 0.00249 µM
CLint scaled [17]: 1.62 mL/min/kg
selectivity ratio [18]: 7180
EC50 [19]: 0.00477 µM
CC50 at 48 h [20]: 13.8 µM
bioavailability ([21]; CD-1, mouse): 71.6%
AUC(0-inf) ([22]; CD-1, mouse): 11100 ng·h/mL
CC50 at 48 h [23]: 46.3 µM
CC50 at 48 h [24]: 41.6 µM
AUC(0-inf) ([25]; CD-1, mouse): 1230 ng·h/mL
half-life [26]: 12.8 h
MRT inf [27]: 2.98 h
Activity [28]: Dose-dependent-effect
CLint scaled [29]: 2.38 mL/min/kg
Tmax [30]: 0.42 h

O=C1c2c(O)c(=O)ccn2N([C@@H]2c3ccccc3SCc3c2ccc(F)c3F)[C@@H]2COCCN12 [BALOXAVIR]
Activity [31]: Active
selectivity ratio [8]: 5290
EC50 [9]: 0.00176 µM
CC50 at 48 h [13]: 19.1 µM
EC50 [16]: 0.00175 µM
selectivity ratio [18]: 2440
EC50 [19]: 0.00381 µM
Activity [32]: Active
CC50 at 48 h [20]: 2.86 µM
F ([21]; mouse, po, 15 mg/kg, 24 h): 27.2%
AUC ([22]; mouse, po, 15 mg/kg, 24 h): 2877 ng·h/mL
CC50 at 48 h [23]: 7.38 µM
CC50 at 48 h [24]: 9.34 µM
Activity [33]: Active; Surviving Animals Gradually Starting Weight Weight Beginning 9 Dpi
AUC ([25]; mouse, iv, 1 mg/kg, 24 h): 239 ng·h/mL
Activity [34]: Active

COC(=O)OCOc1c2n(ccc1=O)N([C@@H](c1ccc(F)c(F)c1)c1cccs1)[C@@H]1COCCN1C2=O
Activity [35]: Non-toxic
Activity [31]: Active
Activity [36]: Active
Activity [37]: Active
Activity [38]: inactive
Activity [39]: Non-toxic
Activity [40]: Non-toxic
Activity [41]: Active
CC50 at 48 h [13]: > 50 µM
Activity [42]: Active
Activity [43]: Non-toxic
Activity [44]: Non-toxic
Activity [45]: inactive
Activity [32]: Active
CC50 at 48 h [20]: 29.9 µM
CC50 at 48 h [23]: > 50 µM
Activity [46]: Active
CC50 at 48 h [24]: 60.1 µM
Activity [33]: Active; Surviving Animals Gradually Starting Weight Weight Beginning 9 Dpi
Activity [34]: Active
Activity [47]: Non-toxic

Reference: ChEMBL document CHEMBL6078703, “Discovery of Novel Thiophene-Based Baloxavir Derivatives as Potent Cap-Dependent Endonuclease Inhibitors for Influenza Treatment” (J Med Chem, 2024)
